Reference: ChEMBL document CHEMBL4002607, “Sulfamic and succinic acid derivatives of 25-OH-PPD and their activities to MCF-7, A-549, HCT-116, and BGC-823 cell lines” (Bioorg Med Chem Lett, 2017)

What was measured:
BGC-823 [1] = test: Antiproliferative activity against human BGC823 cells after 48 hrs by MTT assay; type: functional, cell-based; conditions: BGC-823, 48 h
A549 [2] = test: Antiproliferative activity against human A549 cells after 48 hrs by MTT assay; type: functional, cell-based
MCF7 = test: Antiproliferative activity against human MCF7 cells after 48 hrs by MTT assay; type: functional, cell-based; conditions: MCF7, 48 h
HCT-116 = test: Antiproliferative activity against human HCT116 cells after 48 hrs by MTT assay; type: functional, cell-based
BGC-823 [3] = test: Antiproliferative activity against human BGC823 cells assessed as cell viability at 40 uM after 48 hrs by MTT assay relative to control; type: functional; conditions: BGC-823, 48 h, read-out: Activity
[4] = Antiproliferative activity against human IOSE-144 cells after 48 hrs by MTT assay; type: cell-based; conditions: IOSE-144, 48 h
A549 [5] = test: Antiproliferative activity against human A549 cells assessed as cell viability at 20 uM after 48 hrs by MTT assay relative to control; type: functional; conditions: A549, 48 h, read-out: Activity
[6] = Homo sapiens, A549, 48 h, read-out: IC50
[7] = Homo sapiens, HCT-116, 48 h, read-out: IC50

Row | SMILES | IC50 (BGC-823 [1]) [µM] | IC50 (A549 [2]; [6]) [µM] | IC50 (MCF7) [µM] | IC50 (HCT-116; [7]) [µM] | viability at 40 µM (BGC-823 [3]) [%] | IC50 [4] [µM] | IC50 (A549 [2]; a549) | IC50 (HCT-116; hct-116) | viability at 20 µM (A549 [5]) [%]
1 | O=c1[nH]cc(F)c(=O)[nH]1 [FLUOROURACIL] | 34.8 | 10.5 | 19.2 | 29.2 | – | – | – | – | –
2 | CC(C)(O)CCC[C@@](C)(OS(N)(=O)=O)[C@H]1CC[C@]2(C)[C@@H]1[C@H](O)C[C@@H]1[C@@]3(C)CC[C@H](OS(N)(=O)=O)C(C)(C)[C@@H]3CC[C@]12C | 14.9 | 8.8 | 12.4 | 41.5 | 14.5 | > 100 | – | – | –
3 | C=C(CCCC(C)(C)O)[C@H]1CC[C@]2(C)[C@@H]1[C@H](OS(N)(=O)=O)C[C@@H]1[C@@]3(C)CC[C@H](OS(N)(=O)=O)C(C)(C)[C@@H]3CC[C@]12C | 37.7 | 24.1 | 30.3 | > 100 | – | > 100 | – | – | –
4 | CC(C)(O)CCC[C@@](C)(O)[C@H]1CC[C@]2(C)[C@@H]1[C@H](OC(=O)CCC(=O)O)C[C@@H]1[C@@]3(C)CC[C@H](OC(=O)CCC(=O)O)C(C)(C)[C@@H]3CC[C@]12C | > 100 | > 100 | 40.3 | > 100 | – | > 100 | – | – | –
5 | C=C(CCC=C(C)C)[C@H]1CC[C@]2(C)[C@@H]1[C@H](OS(N)(=O)=O)C[C@@H]1[C@@]3(C)CC[C@H](O)C(C)(C)[C@@H]3CC[C@]12C | 25.9 | – | 13.5 | – | 21.2 | > 100 | Not Active | Not Active | –
6 | C=C(CCCC(C)(C)O)[C@H]1CC[C@]2(C)[C@@H]1[C@H](O)C[C@@H]1[C@@]3(C)CC[C@H](O)C(C)(C)[C@@H]3CC[C@]12C | 34.6 | 29.2 | 32.9 | > 100 | – | > 100 | – | – | –
7 | C=C(CCCC(C)(C)O)[C@H]1CC[C@]2(C)[C@@H]1[C@H](O)C[C@@H]1[C@@]3(C)CC[C@H](OS(N)(=O)=O)C(C)(C)[C@@H]3CC[C@]12C | 21.6 | 0.8 | 11.9 | 42.4 | 24.7 | > 100 | – | – | 9
8 | C=C(CCCC(C)(C)OS(N)(=O)=O)[C@H]1CC[C@]2(C)[C@@H]1[C@H](O)C[C@@H]1[C@@]3(C)CC[C@H](O)C(C)(C)[C@@H]3CC[C@]12C | 32 | 13.7 | 20.8 | – | 39.9 | > 100 | – | Not Active | –
9 | C=C(CCCC(C)(C)O)[C@H]1CC[C@]2(C)[C@@H]1[C@H](OS(N)(=O)=O)C[C@@H]1[C@@]3(C)CC[C@H](O)C(C)(C)[C@@H]3CC[C@]12C | > 100 | 20.9 | 33.8 | > 100 | – | > 100 | – | – | –
10 | CC(C)=CCC[C@@](C)(O)[C@H]1CC[C@]2(C)[C@@H]1[C@H](OS(N)(=O)=O)C[C@@H]1[C@@]3(C)CC[C@H](O)C(C)(C)[C@@H]3CC[C@]12C | 25.5 | 23.8 | 18.2 | 57.9 | 19.9 | > 100 | – | – | –
11 | CC(C)=CCC[C@@](C)(O)[C@H]1CC[C@]2(C)[C@@H]1[C@H](O)C[C@@H]1[C@@]3(C)CC[C@H](OS(N)(=O)=O)C(C)(C)[C@@H]3CC[C@]12C | 22.1 | 9.9 | 14.5 | 26.8 | 17.1 | > 100 | – | – | –
12 | CC(C)(O)CCC[C@@](C)(O)[C@H]1CC[C@]2(C)[C@@H]1[C@H](O)C[C@@H]1[C@@]3(C)CC[C@H](O)C(C)(C)[C@@H]3CC[C@]12C | 33.2 | 5.9 | 7.5 | 21.5 | 40.1 | > 100 | – | – | 36.5
13 | CC(C)(O)CCC[C@@](C)(O)[C@H]1CC[C@]2(C)[C@@H]1[C@H](O)C[C@@H]1[C@@]3(C)CC[C@H](OS(N)(=O)=O)C(C)(C)[C@@H]3CC[C@]12C | 14 | 0.2 | 14.6 | – | 40 | > 100 | – | Not Active | 6
14 | CC(C)(O)CCC[C@@](C)(O)[C@H]1CC[C@]2(C)[C@@H]1[C@H](OC(=O)CCC(=O)O)C[C@@H]1[C@@]3(C)CC[C@H](O)C(C)(C)[C@@H]3CC[C@]12C | > 100 | > 100 | 77.1 | 75.3 | – | > 100 | – | – | –
